Active and inactive are the calls of the source. No cut-off for these calls is given here.
Columns and labels:
Assay type in all cases: organism-based
Escherichia coli [1] = test: Induction of outer membrane permeabilization in Escherichia coli ATCC 25922 at 1 to 64 uM by NPN-dye based assay
[2] = Toxicity in ICR mouse assessed as effect on ALT levels in serum at 20 mg/kg, ip administered every 12 hrs for 3 days measured at 72 hrs post dose; details: in vivo
Escherichia coli [3] = test: Induction of cell membrane disruption in Escherichia coli ATCC 25922 at MBC after 30 mins using FITC-labelled peptides by propidium iodide-staining based confocal fluorescent microscopy

Substance: H-IRPIIRPIIRPIIRPIIRPIIRPIIRPI-NH2
- Activity (Escherichia coli [1]): Active
- Activity [2]: Toxic
- Activity (Escherichia coli [3]): Active

Source: ChEMBL document CHEMBL4316596, “Antimicrobial Peptides with High Proteolytic Resistance for Combating Gram-Negative Bacteria” (J Med Chem, 2019)
